Data taken from US9096598B2 (Merck Sharp & Dohme Corp., priority 2011, dated 2015).

Columns and labels:
[1] = molecular target: T1, JAK2 (Homo sapiens, UniProt O60674); assay: Jak Biochemical HTRF Assay (JAK2); details: recombinant purified GST-tagged catalytic domain, [ATP] 8.5 μM, values given as range classes
T1 construct: recombinant purified GST-tagged catalytic domain for each enzyme; purchased Invitrogen M4290
Protocol: (§1) Jak Biochemical HTRF Assay Protocol
(§2) The ability of compounds to inhibit the activity of JAK1, JAK2, JAK3, and Tyk2 was measured using a recombinant purified GST-tagged catalytic domain for each enzyme (Invitrogen JAK1 #M4290, JAK2 #M4290, JAK3 #M4290, Tyk2 #M4290) in an HTRF format biochemical assay. The reactions employed a common peptide substrate, LCB-EQEDEPEGDYFEWLW-NH2 (in-house). The basic assay protocol is as follows: First, 250 nL of diluted compounds in DMSO were dispensed into the wells of a dry 384-well Black plate (Greiner #781076) using a Labcyte Echo 555 acoustic dispenser. Subsequent reagent additions employed an Agilent Bravo. Next, 18 μL of 1.11× enzyme and 1.11× substrate in 1× assay buffer (Invitrogen kinase buffer #PV3189, 2 mM DTT, 0.05% BSA) were added to the wells and shaken and then preincubated for 30 minutes at room temperature to allow compound binding to equilibrate. After equilibration, 2 μL of 10×ATP in 1× assay buffer was added to initiate the kinase reaction and the plates were shaken and then incubated at room temperature for 120 minutes. At the end of the incubation, 20 μL of 2× stop buffer (streptavidin-Dylight 650 (Thermo #84547B/100 mL), Eu-tagged pY20 antibody (Perkin Elmer #AD0067), EDTA, HEPES, and Triton) was added to quench the reaction. Plates were shaken and centrifuged and then incubated 60 minutes at room temperature and then read on a Perkin Elmer Envision (λex=337 nm, λem=665 and 615 nm, TRF delay time=20 μs). HTRF signal=10,000*665 nm reading/615 nm reading. After normalization to untreated controls, the percent inhibition of the HTRF signal at each compound concentration was calculated. The plot of percent inhibition versus the log of compound concentration was fit with a 4-parameter dose response equation to calculate IC50 values.
(§3) Final reaction conditions were:
(§4) Examples of the instant invention were evaluated in JAK2 and JAK3 in vitro binding assays. Table 13 tabulates the biological data disclosed for the instant invention as a range of JAK2 and JAK3 IC50 values (A: IC50≦10 nM; B: 10 nM>IC50≦500 nM C: IC50>500 nM).

[2] = molecular target: T2, JAK3 (Homo sapiens, UniProt P52333); assay: Jak Biochemical HTRF Assay (JAK3); details: recombinant purified GST-tagged catalytic domain, [ATP] 2.9 μM, values given as range classes
T2 construct: recombinant purified GST-tagged catalytic domain for each enzyme; purchased Invitrogen M4290
Protocol: as §1, §2, §3, §4

T2 sequence (P52333 822-1111 limits assumed): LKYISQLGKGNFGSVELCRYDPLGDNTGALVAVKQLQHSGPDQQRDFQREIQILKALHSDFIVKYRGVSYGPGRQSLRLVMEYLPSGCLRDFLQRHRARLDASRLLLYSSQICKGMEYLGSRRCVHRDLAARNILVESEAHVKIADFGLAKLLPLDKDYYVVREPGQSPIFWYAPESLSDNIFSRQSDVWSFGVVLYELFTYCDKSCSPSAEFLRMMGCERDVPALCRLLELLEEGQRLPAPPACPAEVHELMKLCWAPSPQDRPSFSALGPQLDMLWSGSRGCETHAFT
T1 sequence (O60674 849-1124 limits assumed): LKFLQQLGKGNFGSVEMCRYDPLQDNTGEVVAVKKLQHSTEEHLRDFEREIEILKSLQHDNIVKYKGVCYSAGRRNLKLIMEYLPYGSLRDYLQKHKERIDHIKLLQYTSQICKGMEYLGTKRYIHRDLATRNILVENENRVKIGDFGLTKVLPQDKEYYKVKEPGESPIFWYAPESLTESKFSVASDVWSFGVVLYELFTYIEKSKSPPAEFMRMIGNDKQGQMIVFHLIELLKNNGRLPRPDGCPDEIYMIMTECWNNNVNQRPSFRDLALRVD

Compound | IC50 [1] [nM] | IC50 [2] [nM]
CC(C)[C@H](Nc1cncc(-c2c[nH]c3ncc(OCCCN(C)C)cc23)c1)C(=O)NCC(F)(F)F [Example 2-14, N~2~-(5-{5-[3-(dimethylamino)propoxy]-1H-pyrrolo[2,3-b]pyridin-3-yl}pyridin-3-yl)-N-(2,2,2-trifluoroethyl)valinamide] | 10 to 500 | ≤ 10
CC(C)[C@@H](Nc1cncc(-c2c[nH]c3ncc(-c4cnn(C)c4)cc23)c1)C(=O)NCC(F)(F)F [Example 8-3, N^2-{5-[5-(1-methyl-1H-pyrazol-4-yl)-1H-pyrrolo[2,3-b]pyridin-3-yl]pyridin-3-yl}-N-(2,2,2-trifluoroethyl)-D-valinamide] | ≤ 10 | ≤ 10
CC(C)[C@H](Nc1cncc(-c2c[nH]c3ncc(C#N)cc23)c1)C(=O)NCC(F)(F)F [Example 1-41, N~2~-[5-(5-cyano-1H-pyrrolo[2,3-b]pyridin-3-yl)pyridin-3-yl]-N-(2,2,2-trifluoroethyl)valinamide] | 10 to 500 | ≤ 10
CC(C)C(Nc1cncc(-c2c[nH]c3ncc(CNC(=O)C4CCCCC4)cc23)c1)C(=O)NCC(F)(F)F (stereo not drawn) [Example 10-3, N-({3-[5-({2-methyl-1-[(2,2,2-trifluoroethyl)carbamoyl]prop-yl}amino)pyridin-3-yl]-1H-pyrrolo[2,3-b]pyridin-5-yl}methyl)cyclohexanecar-boxamide] | > 500 | 10 to 500
Cc1ncoc1C(=O)NCc1cnc2[nH]cc(-c3cncc(N[C@H](C(=O)NCC(F)(F)F)C(C)C)c3)c2c1 [Example 10-7, N~2~-{5-[5-({[(4-methyl-1,3-oxazol-5-yl)carbonyl]amino}methyl)-1H-pyrrolo[2,3-b]pyridin-3-yl]pyridin-3-yl}-N-(2,2,2-trifluoroethyl)valinamide] | > 500 | 10 to 500
CC(=O)Nc1cnc2[nH]cc(-c3cncc(N[C@H](C(=O)NCC(F)(F)F)C(C)C)c3)c2c1 [Example 5-2, N^2-{5-[5-(acetylamino)-1H-pyrrolo[2,3-b]pyridin-3-yl]pyridin-3-yl}-N-(2,2,2-trifluoroethyl)valinamide] | 10 to 500 | ≤ 10
CC(C)[C@@H](Nc1cnnc(-c2c[nH]c3ncc(C(N)=O)cc23)n1)C(=O)NCC(F)(F)F [Example 1-18, 3-[5-({(1R)-2-methyl-1-[(2,2,2-trifluoroethyl)carbamoyl]propyl}amino)-1,2,4-triazin-3-yl]-1H-pyrrolo[2,3-b]pyridine-5-carboxamide] | 10 to 500 | ≤ 10
C/C=C/C(=O)NCc1cnc2[nH]cc(-c3cncc(N[C@H](C(=O)NCC(F)(F)F)C(C)C)c3)c2c1 [Example 10-4, N~2~-[5-(5-{[(2E)-but-2-enoylamino]methyl}-1H-pyrrolo[2,3-b]pyridin-3-yl)pyridin-3-yl]-N-(2,2,2-trifluoroethyl)valinamide] | 10 to 500 | ≤ 10
CC(CO)NC(=O)c1cnc2[nH]cc(-c3cncc(N[C@@H](C(=O)NCC(F)(F)F)C(C)C)c3)c2c1 (stereo partly drawn) [Example 3-4, N-(2-hydroxy-1-methylethyl)-3-[5-({(1R)-2-methyl-1-[(2,2,2-trifluoroethyl)carbamoyl]propyl}amino)pyridin-3-yl]-1H-pyrrolo[2,3-b]pyridine-5-carboxamide] | ≤ 10 | ≤ 10
CC(C)[C@@H](Nc1cnnc(-c2c[nH]c3ncc(Cl)cc23)n1)C(=O)NCC(F)(F)F [Example 1-3, N~2~-[3-(5-chloro-1H-pyrrolo[2,3-b]pyridin-3-yl)-1,2,4-triazin-5-yl]-N-(2,2,2-trifluoroethyl)-D-valinamide] | 10 to 500 | ≤ 10
CC(C)[C@@H](Nc1cncc(-c2c[nH]c3ncc(COC(C)(C)C)cc23)c1)C(=O)NCC(F)(F)F [Example 9-2, N~2~-{5-[5-(tert-butoxymethyl)-1H-pyrrolo[2,3-b]pyridin-3-yl]pyridin-3-yl}-N-(2,2,2-trifluoroethyl)-D-valinamide] | 10 to 500 | 10 to 500
Clc1cnc2[nH]cc(-c3cc(N4CCCC4c4nccs4)cnn3)c2c1 (stereo not drawn) [Example 1-26, 5-chloro-3-{5-[2-(1,3-thiazol-2-yl)pyrrolidin-1-yl]pyridazin-3-yl}-1H-pyrrolo[2,3-b]pyridine] | 10 to 500 | 10 to 500
CC1c2ncc(C(F)(F)F)n2CCN1c1cnnc(-c2c[nH]c3ncc(C(N)=O)cc23)n1 (stereo not drawn) [Example 1-15, 3-{5-[8-methyl-3-(trifluoromethyl)-5,6-dihydroimidazo[1,2-a]pyrazin-7(8H)-yl]-1,2,4-triazin-3-yl}-1H-pyrrolo[2,3-b]pyridine-5-carboxamide] | 10 to 500 | ≤ 10
O=C(NCC(F)(F)F)[C@H]1CCCC[C@H]1Nc1cnnc(-c2c[nH]c3ncc(Cl)cc23)n1 [Example 1-19, (1S,2R)-2-{[3-(5-chloro-1H-pyrrolo[2,3-b]pyridin-3-yl)-1,2,4-triazin-5-yl]amino}-N-(2,2,2-trifluoroethyl)cyclohexane-carboxamide] | 10 to 500 | 10 to 500
CC(C)C(Nc1cncc(-c2c[nH]c3ncc(-c4cnn(C)c4)cc23)c1)C(=O)NCC(F)(F)F (racemic) [Example 8-1, N^2-{5-[5-(1-methyl-1H-pyrazol-4-yl)-1H-pyrrolo[2,3-b]pyridin-3-yl]pyridin-3-yl}-N-(2,2,2-trifluoroethyl)valinamide] | ≤ 10 | ≤ 10
CNC(=O)Nc1cnc2[nH]cc(-c3cncc(N[C@H](C(=O)NCC(F)(F)F)C(C)C)c3)c2c1 [Example 6-5, N~2~-(5-{5-[(methylcarbamoyl)amino]-1H-pyrrolo[2,3-b]pyridin-3-yl}pyridin-3-yl)-N-(2,2,2-trifluoroethyl)valinamide] | 10 to 500 | ≤ 10
CC(C)C(Nc1cncc(-c2c[nH]c3ncc(O)cc23)c1)C(=O)NCC(F)(F)F (stereo not drawn) [Example 2-1, 2-{[5-(5-hydroxy-1H-pyrrolo[2,3-b]pyridin-3-yl)pyridin-3-yl]amino}-3-methyl-N-(2,2,2-trifluoroethyl)butanamide] | 10 to 500 | ≤ 10
CC(C)[C@H](Nc1cncc(-c2c[nH]c3ncc(OC4CCOCC4)cc23)c1)C(=O)NCC(F)(F)F [Example 2-9, N~2~-{5-[5-(tetrahydro-2H-pyran-4-yloxy)-1H-pyrrolo[2,3-b]pyridin-3-yl]pyridin-3-yl}-N-(2,2,2-trifluoroethyl)valinamide] | 10 to 500 | ≤ 10
CC(C)[C@@H](Nc1cncc(-c2c[nH]c3ncc(Cl)cc23)c1)C(=O)NCC(F)(F)F (single isomer, unassigned) [Example 1-1] | 10 to 500 | ≤ 10
CC(C(=O)NCC(F)(F)F)n1ccc2ncc(-c3c[nH]c4ncc(Cl)cc34)cc21 (stereo not drawn) [Example 1-35, 2-[6-(5-chloro-1H-pyrrolo[2,3-b]pyridin-3-yl)-1H-pyrrolo[3,2-b]pyridin-1-yl]-N-(2,2,2-trifluoroethyl)propanamide] | 10 to 500 | ≤ 10
CC(C)[C@H](Nc1cncc(-c2c[nH]c3ncc(CNC(=O)CC(F)(F)F)cc23)c1)C(=O)NCC(F)(F)F [Example 10-10, N-(2,2,2-trifluoroethyl)-N~2~-[5-(5-{[(3,3,3-trifluoropropanoyl)amino]methyl}-1H-pyrrolo[2,3-b]pyridin-3-yl)pyridin-3-yl]valinamide] | > 500 | 10 to 500
